Laboratory results taken from PubChem BioAssay AID256 (DTP/NCI, 2004).
Toxic doses and inconclusive results are not listed. Rule for the calls: active = survival T/C of 150% or more; inactive = T/C below 125% in these data.

Test system: CD2F1 mice, L1210 leukemia ip, survival T/C
Assay: NCI In Vivo Anticancer Drug Screen. Data for tumor model L1210 Leukemia (intraperitoneal) in CD2F1 (CDF1) mice
Conditions: endpoint: mean survival time, higher = longer survival
Procedure, shortened: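 Ratio T/C, where T is the treated-group value and C the vehicle-dosed control value, from mice implanted with a transplantable tumor.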

[1] = dose: 100.0 mg/kg/injection, schedule: Q04DX003 (ip), vehicle: saline with Tween-80
[2] = dose: 200.0 mg/kg/injection, schedule: Q04DX003 (ip), vehicle: saline with Tween-80
[3] = dose: 400.0 mg/kg/injection, schedule: Q04DX003 (ip), vehicle: saline with Tween-80
[4] = dose: 75.0 mg/kg/injection, schedule: Q01DX001 (ip), vehicle: saline
[5] = dose: 150.0 mg/kg/injection, schedule: Q01DX001 (ip), vehicle: saline
[6] = dose: 100.0 mg/kg/injection, schedule: Q01DX001 (ip), vehicle: saline with Tween-80
[7] = dose: 200.0 mg/kg/injection, schedule: Q01DX001 (ip), vehicle: saline with Tween-80
[8] = dose: 400.0 mg/kg/injection, schedule: Q01DX001 (ip), vehicle: saline with Tween-80
[9] = dose: 50.0 mg/kg/injection, schedule: Q01DX001 (ip), vehicle: saline with Tween-80
[10] = dose: 100.0 mg/kg/injection, schedule: Q04DX003 (ip), vehicle: saline
[11] = dose: 200.0 mg/kg/injection, schedule: Q04DX003 (ip), vehicle: saline
[12] = dose: 400.0 mg/kg/injection, schedule: Q04DX003 (ip), vehicle: saline
[13] = dose: 100.0 mg/kg/injection, schedule: Q01DX009 (ip), vehicle: saline sonified
[14] = dose: 200.0 mg/kg/injection, schedule: Q01DX009 (ip), vehicle: saline sonified

Measured: T/C

NC(=O)c1cc2c3ccccc3ncc2c2ccccc12
inactive: [1] 101 % of control | [2] 97 % of control | [3] 94 % of control

CCc1c(-c2ccccc2)c(CN2CCCCC2)c2ccccn12
inactive: [4] 103 % of control | [5] 103 % of control | dose: 300.0 mg/kg/injection, schedule: Q01DX001 (ip), vehicle: saline 113 % of control

COc1ccc(-c2nc(N)ncc2C)cc1
inactive: dose: 100.0 mg/kg/injection, schedule: Q04DX002 (ip), vehicle: other 96 % of control | dose: 200.0 mg/kg/injection, schedule: Q04DX002 (ip), vehicle: other 96 % of control | dose: 400.0 mg/kg/injection, schedule: Q04DX002 (ip), vehicle: other 101 % of control

CCN=Cc1ccccc1O.CCN=Cc1ccccc1O.[Pd]
inactive: [6] 106 % of control | [7] 95 % of control | [8] 95 % of control

FC(F)(F)/C([S-])=C(/[S-])C(F)(F)F.FC(F)(F)/C([S-])=C(/[S-])C(F)(F)F.FC(F)(F)/C([S-])=C(/[S-])C(F)(F)F.FC(F)(F)/C([S-])=C(/[S-])C(F)(F)F.[Co+3].[Co+3]
inactive: dose: 12.5 mg/kg/injection, schedule: Q04DX003 (ip), vehicle: other 95 % of control | dose: 25.0 mg/kg/injection, schedule: Q04DX003 (ip), vehicle: other 95 % of control | dose: 50.0 mg/kg/injection, schedule: Q04DX003 (ip), vehicle: other 98 % of control

N#CC(C#N)=c1ccc(=C(C#N)C#N)cc1
inactive: [1] 98 % of control

CCCCOc1ccc(OCCCC)cc1
inactive: dose: 100.0 mg/kg/injection, schedule: Q04DX003 (ip), vehicle: other 114 % of control | dose: 200.0 mg/kg/injection, schedule: Q04DX003 (ip), vehicle: other 97 % of control | dose: 400.0 mg/kg/injection, schedule: Q04DX003 (ip), vehicle: other 101 % of control

NP(=O)(OCCC(OCc1ccccc1)OCc1ccccc1)N(CCCl)CCCl (centres undefined)
inactive: dose: 25.0 mg/kg/injection, schedule: Q01DX001 (ip), vehicle: DMSO 100 % of control | dose: 50.0 mg/kg/injection, schedule: Q01DX001 (ip), vehicle: DMSO 100 % of control | dose: 100.0 mg/kg/injection, schedule: Q01DX001 (ip), vehicle: DMSO 91 % of control | dose: 200.0 mg/kg/injection, schedule: Q01DX001 (ip), vehicle: DMSO 97 % of control | dose: 400.0 mg/kg/injection, schedule: Q01DX001 (ip), vehicle: DMSO 103 % of control

O=[N+]([O-])c1cnc(C2=C(O)c3ccccc3CC2)s1
inactive: dose: 25.0 mg/kg/injection, schedule: Q01DX001 (ip), vehicle: saline with Tween-80 96 % of control | [9] 96 % of control | [6] 100 % of control

CCCCNc1cc(=O)[nH]c(=O)[nH]1
inactive: [9] 104 % of control | [6] 98 % of control | [7] 102 % of control

C[C@]12CCCC[C@@H]1CC[C@@H]1[C@@H]2CC[C@]2(C)C(=O)CC[C@@H]12
inactive: [1] 92 % of control | [2] 91 % of control | [3] 89 % of control

O=C(O)C(CCc1ccccc1)N1CCOCC1 (centres undefined)
inactive: [10] 98 % of control | [11] 98 % of control | [12] 101 % of control

COc1ccc(OC)c(CC(CC(=O)O)C(C)=O)c1 (centres undefined)
inactive: dose: 12.5 mg/kg/injection, schedule: Q01DX009 (ip), vehicle: water 96 % of control | dose: 25.0 mg/kg/injection, schedule: Q01DX009 (ip), vehicle: water 100 % of control | dose: 50.0 mg/kg/injection, schedule: Q01DX009 (ip), vehicle: water 96 % of control | dose: 100.0 mg/kg/injection, schedule: Q01DX009 (ip), vehicle: water 96 % of control | dose: 200.0 mg/kg/injection, schedule: Q01DX009 (ip), vehicle: water 100 % of control

Cc1ccc(N=C=C(c2ccccc2)c2ccccc2)cc1
inactive: [1] 94 % of control | [2] 97 % of control | [3] 94 % of control

C=C(Cl)CSCCCS
inactive: dose: 100.0 mg/kg/injection, schedule: Q04DX003 (ip), vehicle: acetone 111 % of control | dose: 200.0 mg/kg/injection, schedule: Q04DX003 (ip), vehicle: acetone 116 % of control | dose: 400.0 mg/kg/injection, schedule: Q04DX003 (ip), vehicle: acetone 122 % of control

CC1CC(C)(C)CC(=O)O1 (centres undefined)
inactive: [4] 101 % of control

N\C([S-])=N/N=C\C(=N/N=C(\N)[S-])C(O)C(O)C(O)CO.[Fe+2] (centres undefined)
inactive: [13] 91 % of control | [14] 92 % of control

CC1(C)COC(Cc2ccccc2Br)=N1
inactive: [10] 101 % of control | [11] 93 % of control | [12] 93 % of control

O=C(O)c1cc(Br)c(O)cc1O
inactive: [1] 97 % of control | [2] 97 % of control | [3] 87 % of control

CC(C)NCc1ccc2c(c1)OCO2
inactive: [4] 98 % of control | [5] 101 % of control

CCCCCCCCC(Sc1nn(C2OC(COC(=O)c3ccccc3)C(OC(=O)c3ccccc3)C2OC(=O)c2ccccc2)c(=O)[nH]c1=O)C(=O)OCC (centres undefined)
inactive: dose: 12.5 mg/kg/injection, schedule: Q01DX005 (ip), vehicle: distilled water + Tween-80 101 % of control | dose: 25.0 mg/kg/injection, schedule: Q01DX005 (ip), vehicle: distilled water + Tween-80 100 % of control | dose: 50.0 mg/kg/injection, schedule: Q01DX005 (ip), vehicle: distilled water + Tween-80 100 % of control | dose: 100.0 mg/kg/injection, schedule: Q01DX005 (ip), vehicle: distilled water + Tween-80 97 % of control | dose: 200.0 mg/kg/injection, schedule: Q01DX005 (ip), vehicle: distilled water + Tween-80 97 % of control

CCCN1CCN(c2ccccc2)CC1
inactive: dose: 25.0 mg/kg/injection, schedule: Q01DX009 (ip), vehicle: saline 103 % of control | dose: 50.0 mg/kg/injection, schedule: Q01DX009 (ip), vehicle: saline 103 % of control | dose: 100.0 mg/kg/injection, schedule: Q01DX009 (ip), vehicle: saline 96 % of control | [1] 103 % of control

O=C(O)/C=C/C(=O)Nc1ccccc1Cl
inactive: dose: 100.0 mg/kg/injection, schedule: Q01DX009 (ip), vehicle: saline with Tween-80 96 % of control | [1] 94 % of control | dose: 200.0 mg/kg/injection, schedule: Q01DX009 (ip), vehicle: saline with Tween-80 96 % of control | [2] 105 % of control | [3] 101 % of control

CCOC(=O)CC(C)(CC(=O)OCC)C(C#N)C(=O)OCC (centres undefined)
inactive: [1] 116 % of control | [2] 119 % of control | [3] 120 % of control

COC(OC)C1C=CC=CC=C1
inactive: dose: 100.0 mg/kg/injection, schedule: Q04DX003 (ip), vehicle: saline sonified 92 % of control | dose: 200.0 mg/kg/injection, schedule: Q04DX003 (ip), vehicle: saline sonified 94 % of control | dose: 400.0 mg/kg/injection, schedule: Q04DX003 (ip), vehicle: saline sonified 90 % of control

CC(=O)Nc1ccc(S(=O)(=O)N(CCO)CCO)cc1
inactive: [6] 100 % of control | [13] 100 % of control | [7] 102 % of control | [14] 95 % of control | [8] 98 % of control | dose: 400.0 mg/kg/injection, schedule: Q01DX009 (ip), vehicle: saline sonified 97 % of control
